# Results as given in patent publication US9815852B2, “Macrocyclic compounds and methods of treatment” (University of Florida Research Foundation, Inc., priority 2014, dated 2017).
# pIC50: −log10 of the molar value. Like-named read-outs stand apart in the source and are kept apart here.
# Key:
# Type in all cases: biochemical
# HDAC2 = HDAC2 (Homo sapiens, UniProt Q92769); experiment: HDAC enzyme inhibitory assay (fluorescence), HDAC2; conditions: for IC50 (HDAC2)/IC50 (HDAC1): selectivity ratio, table
# Sequence of HDAC2 (Q92769 whole entry, species assumed): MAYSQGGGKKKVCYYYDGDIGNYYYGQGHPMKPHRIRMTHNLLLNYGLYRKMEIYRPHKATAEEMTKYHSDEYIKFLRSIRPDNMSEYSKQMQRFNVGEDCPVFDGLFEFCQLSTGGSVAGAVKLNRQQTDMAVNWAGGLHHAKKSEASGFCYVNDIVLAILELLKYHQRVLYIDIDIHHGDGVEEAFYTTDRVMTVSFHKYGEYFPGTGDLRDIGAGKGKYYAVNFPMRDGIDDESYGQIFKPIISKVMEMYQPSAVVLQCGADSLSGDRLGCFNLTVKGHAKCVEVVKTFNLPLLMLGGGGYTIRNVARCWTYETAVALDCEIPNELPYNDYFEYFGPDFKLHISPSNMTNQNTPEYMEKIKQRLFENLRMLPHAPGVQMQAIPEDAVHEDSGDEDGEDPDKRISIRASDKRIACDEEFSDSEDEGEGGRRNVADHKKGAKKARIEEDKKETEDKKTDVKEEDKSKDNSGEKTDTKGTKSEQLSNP
# Experimental: (§1) Enzyme inhibitory assays were carried out essentially as follows. In brief, compounds were incubated with the appropriate HDAC enzyme, the appropriate HDAC substrate, bovine serum albumin, and HDAC buffer. Duplicate reactions were carried out at 37° C. for 30 min. The reactions were quenched at the end of the incubation period with the addition of HDAC developer. Reactions were further incubated for 15 min at room temperature prior to fluorescence measurement (ex 360 nm/em 460 nm). The % inhibitory activity was calculated according to the equation (F−Fb)/(Ft−Fb), where F—fluorescent intensity of compound treated wells, Fb—fluorescent intensity of blank wells, Ft—fluorescent intensity of solvent control wells. IC50 values were calculated using GraphPad Prism.
# HDAC8 = target: T1, HDAC8 (Homo sapiens, UniProt Q9BY41); experiment: HDAC enzyme inhibitory assay (fluorescence), HDAC8; conditions: for pIC50: no inhibition up to highest concentration 1 μM
# T1 sequence (Q9BY41 1-377): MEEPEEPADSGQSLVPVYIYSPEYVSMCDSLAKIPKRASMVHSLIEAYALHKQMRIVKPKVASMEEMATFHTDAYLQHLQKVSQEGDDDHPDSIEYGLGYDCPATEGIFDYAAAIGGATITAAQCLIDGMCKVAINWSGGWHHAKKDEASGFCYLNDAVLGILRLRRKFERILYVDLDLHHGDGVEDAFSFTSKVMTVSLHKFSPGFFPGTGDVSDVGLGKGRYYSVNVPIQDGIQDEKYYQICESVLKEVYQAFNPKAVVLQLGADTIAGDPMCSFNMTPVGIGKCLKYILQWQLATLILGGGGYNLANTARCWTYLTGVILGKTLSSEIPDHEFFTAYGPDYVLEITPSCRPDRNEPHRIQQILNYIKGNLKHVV
# Experimental: as §1
# HDAC1 = HDAC1 (Homo sapiens, UniProt Q13547); experiment: HDAC enzyme inhibitory assay (fluorescence), HDAC1
# Sequence of HDAC1 (Q13547 whole entry, species assumed): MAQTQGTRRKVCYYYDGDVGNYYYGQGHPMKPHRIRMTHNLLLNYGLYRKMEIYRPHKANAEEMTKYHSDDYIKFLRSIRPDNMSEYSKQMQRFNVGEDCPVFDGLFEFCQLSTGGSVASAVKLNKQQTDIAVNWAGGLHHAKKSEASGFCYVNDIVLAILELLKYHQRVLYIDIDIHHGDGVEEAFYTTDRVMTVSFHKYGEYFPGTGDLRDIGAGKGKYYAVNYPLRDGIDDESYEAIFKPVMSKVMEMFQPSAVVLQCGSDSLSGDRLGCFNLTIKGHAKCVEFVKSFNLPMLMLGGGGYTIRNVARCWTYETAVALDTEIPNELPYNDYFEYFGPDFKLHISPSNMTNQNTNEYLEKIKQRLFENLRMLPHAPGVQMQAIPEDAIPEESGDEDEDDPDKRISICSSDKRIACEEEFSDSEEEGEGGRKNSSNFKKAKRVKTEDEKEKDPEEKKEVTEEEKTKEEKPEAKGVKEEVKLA
# Experimental: as §1
# HDAC3 = HDAC3 (Homo sapiens, UniProt O15379); experiment: HDAC enzyme inhibitory assay (fluorescence), HDAC3; conditions: for IC50 (HDAC3)/IC50 (HDAC1): selectivity ratio, table
# Sequence of HDAC3 (O15379 whole entry, species assumed): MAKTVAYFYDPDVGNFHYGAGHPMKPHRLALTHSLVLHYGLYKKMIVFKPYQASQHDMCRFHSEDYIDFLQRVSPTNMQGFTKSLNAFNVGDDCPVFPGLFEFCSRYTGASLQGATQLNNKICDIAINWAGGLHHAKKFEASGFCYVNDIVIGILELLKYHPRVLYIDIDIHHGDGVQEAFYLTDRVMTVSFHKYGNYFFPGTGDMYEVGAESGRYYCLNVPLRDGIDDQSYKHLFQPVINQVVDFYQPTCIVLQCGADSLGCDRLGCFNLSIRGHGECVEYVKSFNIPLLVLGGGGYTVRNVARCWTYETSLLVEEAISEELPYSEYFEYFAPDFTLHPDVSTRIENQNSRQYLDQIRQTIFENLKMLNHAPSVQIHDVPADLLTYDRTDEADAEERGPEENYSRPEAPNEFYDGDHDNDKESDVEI
# Sequence of HDAC3 (Q9Y618 395-489 partner limits assumed, species assumed): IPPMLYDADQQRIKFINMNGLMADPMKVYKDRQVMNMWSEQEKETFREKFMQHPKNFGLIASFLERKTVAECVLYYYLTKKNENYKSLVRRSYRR
# Experimental: as §1
# class I HDACs = experiment: HDAC enzyme inhibitory assay, class I HDACs overall; conditions: class I HDACs tested (HDAC1, 2, 3, 8)
# Experimental: as §1, with “Reactions were further incubated for 15 min at room temperature prior to fluorescence measurement (ex 360 nm/em 460 nm).” left out
# [1] = read-out: IC50 HDAC8, 'No Inhibition up to 1 μM'
SMILES,IC50 (HDAC2) [nM],IC50 (HDAC2)/IC50 (HDAC1) (HDAC2),pIC50 (HDAC8; [1]),IC50 (HDAC1) [nM],IC50 (HDAC3) [nM],IC50 (HDAC3)/IC50 (HDAC1) (HDAC3),pIC50 (HDAC8),also measured
CC12CSC(=N1)c1csc(n1)CNC(=O)CC(C=CCCS)OC(=O)C(Cc1c[nH]cn1)NC2=O (centres unmarked) [Compound 5],1.4,7.0,< 6.00,0.2,1.1,5.5,,selectivity towards HDAC1 over HDAC2 (HDAC2): 7 fold; selectivity towards HDAC1 over HDAC3 (HDAC3): 5.5 fold
CC12CSC(=N1)c1csc(n1)CNC(=O)CC(C=CCCS)OC(=O)C(CC(=O)O)NC2=O (centres unmarked) [Compound 6],,,< 6.00,39,,,,"HDAC inhibition, potency in words (class I HDACs): significant reduction in activity"
CC(C)(C)OC(=O)NCCCC1NC(=O)C2(C)CSC(=N2)c2csc(n2)CNC(=O)CC(C=CCCS)OC1=O (centres unmarked) [Compound 10],1.4,1.5,,0.96,1.8,1.9,,"HDAC inhibition, potency in words (class I HDACs): more potent than 9; IC50 (HDAC8; read-out: IC50 (nM) HDAC8): 790 nM"
CC12CSC(=N1)c1csc(n1)CNC(=O)CC(C=CCCS)OC(=O)C(Cc1ccccc1)NC2=O (centres unmarked) [Compound 3],,,< 6.00,0.29,,,,
C[C@@]12CSC(=N1)c1csc(n1)CNC(=O)C[C@@H](/C=C/CCS)OC(=O)[C@H](Cc1ccc(O)cc1)NC2=O [Compound 4],,,,,,,< 6.00,
C[C@@]12CSC(=N1)c1csc(n1)CNC(=O)C[C@@H](/C=C/CCS)OC(=O)[C@H](CCCN)NC2=O [Compound 8],,,,,,,< 6.00,
C[C@@]12CSC(=N1)c1csc(n1)CNC(=O)C[C@@H](/C=C/CCS)OC(=O)[C@H](CCN)NC2=O [Compound 7],,,,,,,< 6.00,
CC(C)(C)OC(=O)NCCC1NC(=O)C2(C)CSC(=N2)c2csc(n2)CNC(=O)CC(C=CCCS)OC1=O (centres unmarked) [Compound 9],3.1,1.4,< 6.00,2.3,4.2,1.8,,
